# Assays:
# [1] = system: Male Laca mice; assay: Porsolt Forced Swim test (behavioural despair test); assay type: in vivo
# Procedure: Method: Porsolt Forced Swim test (also called behavioural despair test)
# Animals are subjected to two trials during which they are force to swim in an acrylic glass cylinder filled with water and from which they cannot escape. The first trial lasts 15 minutes. Then, after 24-hours, a second trial is performed which lasts 5 minutes. The time that the animal spends without moving in the second trial is measured. This immobility time is decreased by antidepressants.
# After some time, the mice give up the attempt to escape from the water and subside into immobility. The duration of the immobility is measured. An animal was considered to be immobile whenever it remained floating passively in the water in a slightly hunched but upright position, its nose above the water surface. […] The total immobility period during the 6-min test was recorded with the help of stopwatch.
# The immobility period data obtained from tables 1, 2 and 3 is plotted against the dose administered in FIG. 1, FIG. 2 and FIG. 3 respectively, as shown in the drawing accompanying this specification.
# Test Procedures: Porsolt Forced Swim test. Rectangular glass jar (25×12×25 cm^3) containing 15 cm of water maintained at 24±1° C.
# The immobility period data obtained from Tables 4, 5, 6 and 7 is plotted against the dose administered in FIG. 4, FIG. 5, FIG. 6 and FIG. 7 respectively, as shown in the drawing accompanying this specification.
# [2] = system: Norepinephrine; assay: Biological amine levels by HPLC-ECD after 45 min: norepinephrine; assay type: in vivo, mice
# Procedure: (§1) Test Substances: […] Animals: Male Laca mice. Test Procedures: Animals were sacrificed after 45 min of drug administration similar to the time period of behavioral observations. HPLC-ECD detector: Mobile phase—Phosphate buffer: […] • Column—ODS-3 C-18 column (250×4.6 mm I.D.; 5 μm particle size)
# [3] = system: Dopamine; assay: Biological amine levels by HPLC-ECD after 45 min: dopamine; assay type: in vivo, mice
# Procedure: as §1
# [4] = system: 5-hydroxytryptamine; assay: Biological amine levels by HPLC-ECD after 45 min: 5-hydroxytryptamine; assay type: in vivo, mice
# Procedure: as §1
# [5] = Safety and tolerability of a single dose in healthy human subjects; assay type: in vivo; details: curcumin 1 gm single dose
# Source text: The secondary aim of study was to monitor the safety and tolerability of a single dose of 1 g curcuminoids when administered in 12 healthy human subjects.
# [6] = system: rats; details: 1.25, 2.5, 5 and 10 mg/kg P.O., chronic treatment 14 days; cited from earlier work
# [7] = system: hippocampal neurogenesis; details: 10 and 20 mg/kg, P.O., chronically stressed rats; cited from earlier work
# [8] = system: mice; details: cited from earlier work
# [9] = system: serotonin (5-HT) as well as dopamine levels; details: mice; cited from earlier work
# [10] = system: monoamine oxidase enzymes; details: mice; cited from earlier work
# [11] = system: AC activity and c-AMP levels; details: platelet and various brain regions, CUMS rats; cited from earlier work
# [12] = dose 100 mg/kg vs fluoxetine 10 mg/kg
# [13] = dose 100 mg/kg, sacrificed after 45 min, n = 5
smiles,measurement,setting,value
"COc1cc(C=CC(=O)CC(=O)C=Cc2ccc(O)c(OC)c2)ccc1O [Curcumin, 1,7-bis(4-hydroxy-3-methoxyphenyl)-1,6-heptadien-3,5-dione]",Potentiation with sub-effective dose of desipramine,[1]; 50 mg/kg with desipramine 5 mg/kg,failed to show any potentiation
same,Potentiated effect with sub-effective dose of tranylcypromine,[1]; 50 mg/kg with tranylcypromine 5 mg/kg,None
same,% Decrease in immobility w.r.t saline treated group,"[1]; Table 1, dose 50 mg/kg",22.55%
same,Immobility period (in seconds),"[1]; Table 1, dose 50 mg/kg",171.8 ± 10.87^ seconds
same,% Decrease in immobility w.r.t saline treated group,"[1]; Table 2, dose 100 mg/kg",9.89%
same,Immobility period,"[1]; Table 2, dose 100 mg/kg",174.2 ± 15.17 s
same,% Decrease in immobility w.r.t saline treated group,"[1]; Table 3, dose 200 mg/kg",31.10%
same,Immobility period,"[1]; Table 3, dose 200 mg/kg",133.2 ± 26.82 s
same,% Decrease in immobility w.r.t saline group,"[1]; Table 4, alone, 50 mg/kg",12.79%
same,Immobility period (in seconds),"[1]; Table 4, alone, 50 mg/kg",171.8 ± 10.87^ seconds
same,% Decrease in immobility w.r.t vehicle group,"[1]; Table 5, alone, 50 mg/kg",24.46%
same,Immobility period,"[1]; Table 5, alone, 50 mg/kg",160.33 ± 19.09 s
same,% Decrease in immobility w.r.t vehicle group,"[1]; Table 6, alone, 50 mg/kg",15.90%
same,Immobility period,"[1]; Table 6, alone, 50 mg/kg",215.50 ± 13.97 s
same,% Decrease in immobility w.r.t vehicle group,"[1]; Table 7, alone, 50 mg/kg",4.91%
same,Immobility period,"[1]; Table 7, alone, 50 mg/kg",262.25 ± 11.89 s
same,Norepinephrine % increase w.r.t Control,[2]; dose 100 mg/kg,67.90%
same,Norepinephrine % increase w.r.t Fluoxetine,[2]; [12],19.18%
same,Norepinephrine (ng/mg tissue),[2]; [13],4.97 ± 0.33a ng/mg tissue
same,Dopamine % increase w.r.t Control,[3]; dose 100 mg/kg,−20.25%
same,Dopamine % increase w.r.t Fluoxetine,[3]; [12],−21.77%
same,Dopamine (ng/mg tissue),[3]; [13],4.33 ± 0.58 ng/mg tissue
same,5-hydroxytryptamine % increase w.r.t Control,[4]; dose 100 mg/kg,6.80%
same,5-hydroxytryptamine % increase w.r.t Fluoxetine,[4]; [12],−21.77%
same,5-hydroxytryptamine (ng/mg tissue),[4]; [13],4.24 ± 0.56 ng/mg tissue
same,Tolerability,[5]; all subjects,well tolerated
same,Adverse events,[5]; entire course of study,no adverse events reported
same,Immobility time in the forced swim test,[6],reduced the immobility time
same,Hippocampal neurogenesis,[7],increased hippocampal neurogenesis
same,Immobility period,[8],inhibited the immobility period
same,Serotonin (5-HT) and dopamine levels,[9],increases serotonin (5-HT) as well as dopamine levels
same,Monoamine oxidase enzymes,[10],inhibited the monoamine oxidase enzymes
same,AC activity and c-AMP levels,[11],enhanced AC activity and c-AMP levels

# Source: patent US9259401B2 (priority 2011, dated 2016)
